Reference: US7498408B2, “Ryanodine receptor polypeptides” (E. I. du Pont de Nemours and Company, priority 2002, dated 2009)

Columns and labels:
[1] = system: native cockroach ryanodine receptors (in embryonic neuronal cells); assay: Calcium release assay, calcium imaging in primary embryonic cockroach neuronal cells; format: cell-based, Periplaneta americana; settings: for Calcium Release (P. americana): known ryanodine receptor agents, native receptors in embryonic neuronal cells, result in words
Excerpt: Embryonic neuronal cultures of the American cockroach Periplaneta americana were established, with minor modifications, following the method of Beadle and Lees (1988) (in Cell Culture Approaches to Invertebrate Neuroscience, Academic Press, New York, pp 123-127). Briefly, 26-27-day old oothecae were collected, surface-sterilized and cut open along a line one-third of the distance below the dorsal midline. The heads were removed and placed in Schneider's Drosophila medium (Invitrogen Life Technologies™, Carlsbad, Calif.). Using fine forceps 40 brains were individually removed and placed in a small glass vial containing 700 μl of ‘5+4’ medium (‘5+4’ medium contained 5 parts Schneider's Drosophila medium plus 4 parts roach Basal Medium Eagle, with Earle's salts (BME, Sigma™, St. Louis, Mo.). Roach BME (with Earle's salts) contained 5 parts Hepes (1 M), 1 part penicillin/streptomycin and 44 parts BME (with Earle's salts). ‘5+4’ medium was made fresh and sterile filtered (0.2 μm filter) just prior to use). The brains were dissociated by sequential trituration as follows: 1) brains were passed through a standard Pasteur pipette 10 times; 2) the resulting tissue suspension was passed an additional 5 times through a Pasteur pipet with tip flamed to about half of its original diameter; 3) a final 5 passes were performed using a Pasteur pipet with tip flamed to slightly less than half of its original diameter. A repeat pipettor was used to dispense a 5 μl volume of the resulting suspension into the center of each well of a 96-well, glass-bottom plate previously coated with poly-L-lysine (0.2 mg/ml solution). Cells attached to the bottom of the wells during a 50 min incubation at 27-29° C. 150 ul of a 1:1 mixture of Leibovitz's L-15 medium and Yunker's modified Grace's medium was added, and plates were maintained in a humid incubator at 27-29° C. until use. After cells were allowed to attach wells were filled with a 1:1 mixture of Leibovitz's L-15 medium and Yunker's modified Grace's medium (Leibovitz's L-15 and Grace's medium were obtained from Invitrogen Life Technologies™, Carlsbad, Calif. and Yunker's modified Grace's medium was made with Grace's medium modified by addition of 5 mg L-methionine, 10 mg L-alanine, 182 mg MgCl26H20, 1 g Albumin Fraction V, 7 ml Fetal bovine serum, 10 ml Chick embryo extract, 2 ml Penicillin/Streptomycin, and 2 mg 20-hydroxyecdysone (prepared in ethanol prior to addition) to a final volume of 100 ml and sterile filtered (0.2 μm filter)). Cells were maintained in a high humidity incubator at 29° C. until testing.
Cells were rinsed in standard physiological saline having the following composition (mM): NaCl 190; CaCl2 9; KCl 3.1; probenicid 1; Tris buffer 10; pH 7.2. Cells were then bathed in standard physiological saline containing the calcium sensitive fluoroprobe Fluo4 AM (2 μM) and Pluronic F127 (0.002%) for 45 min. Cells were then rinsed in standard physiological saline for at least 15 min prior to testing. Within the hour prior to testing, standard physiological saline was replaced with standard physiological saline containing the organic cation channel blocker pimozide (10 μM), to inhibit influx of external calcium through voltage-gated calcium channels. The 96-well plate was placed on a PriorTm motorized stage mounted onto a Nikon Diaphot microscope and imaged using a 20× Fluor objective (NA 0.75). Individual wells from the 96-well plate were sequentially excited with light at 495 nm, and the emitted fluorescence at 530 nm was detected using a Hamamatsu ORCA ER digital camera with 2 pixel binning (image size 672×512 pixels).
Acquisition control, image processing and image analysis were conducted using Universal Imaging Corporation's MetaMorph™ imaging software (Universal Imaging, West Chester, Pa.). A series of 3 “control” images were acquired for each well. Experimental compounds were added followed by acquisition of 4 “experimental” images for each well. […]

[2] = system: control Sf9 cells without DNA / wild type Sf9; assay: Calcium response in control or wild-type Sf9 cells lacking recombinant receptor; format: cell-based, Spodoptera frugiperda; settings: for calcium responses in control cells without DNA (FIG. 3): Compound 16 10 and 100 nM
Excerpt: (§1) Several drops of a suspension of recombinant Spodoptera frugiperda cell line, Sf9, transiently expressing insect ryanodine receptors were placed on a poly-L-lysine-coated coverslip and allowed to attach. Cells were then rinsed in physiological saline having the following composition (mM): NaCl 130; KCl 5.4; MgCl2 1.2; CaCl2 1.0; NaHCO3 4.2; NaH2P04 7.3; Glucose 10; Sucrose 63; MES 20; pH 6.3. Cells were then bathed in physiological saline containing the calcium sensitive fluoroprobe, Fura-2 AM (2 μM), and Pluronic F127 (0.002%) for 30 min. Cells were rinsed in standard physiololgical saline for at least 15 min prior to testing. Testing was conducted in standard physiological saline, as the cell lines are devoid of functional voltage-gated calcium channels.
(§2) Imaging studies were conducted using a Nikon Diaphot microscope with a 40× oil immersion objective (NA 1.3) Image acquisition and processing was performed using the MetaFluor™ imaging system from Universal Imaging Corporation (West Chester, Pa.) Calcium calibration was carried out using the Grynkiewicz equation with a dissociation constant (Kd) of 145 nM for Fura-2 (Grynkiewicz et al., 1985). Cell-attached coverslips were placed in a sealed chamber with physiological saline continuously perfused across the cells using a peristaltic pump. Test compounds solubilized in physiological saline were applied by switching the perfusate source.
(§3) For studies involving the stable recombinant Spodoptera frugiperda cell line, Sf9, (other cell lines could also be used such as Sf21, S2, etc) expressing an insect ryanodine receptor from Drosophila melanogaster, or Heliothis virescens (alternatively receptors from other species such as Myzus persicae, Peregrinus maidis, Aphis gossypii, etc) were grown in T75 (or other appropriate sized) flasks in supplemented Grace's insect medium. Cells were maintained in an incubator at 22° C. until testing. Cells were suspension-loaded with the calcium sensitive fluoroprobe, Fura-2 AM (1-2 μM) and Pluronic F127 (0.002%) in culture medium for 30 minutes under agitation. Cells were then centrifuged and the pellet resuspended in physiological saline having the following composition (mM): NaCl 130; KCl 5.4; MgCl2 1.2; CaCl2 1.0; NaHCO3 4.2; NaH2P04 7.3; Glucose 10; Sucrose 63; MES 20; pH 6.3 at approximately 150,000-200,000 cells per well (96-well plate). After a 30 minute equilibration period the cell plate was tested using a Molecular Devices' FlexStation™ system with dual wavelength excitation (340 and 380 nm) and fluorescence emission measured at 510 nm. Test and control samples were added using integrated fluidics and the intracellular calcium monitored over a 2 minute period.

[3] = system: recombinant Heliothis virescens ryanodine receptor (expressed in Sf9 cells); assay: Calcium release assay in Sf9 cells expressing recombinant Heliothis virescens ryanodine receptor; format: cell-based; settings: caffeine 10 mM; for calcium responses, Sf9 stably expressing H. virescens ryanodine receptor (FIG. 5): Compound 14 1 μM, Fura-2 AM imaging
Excerpt: as §1, §2, §3

[4] = biological target: T1, recombinant Drosophila melanogaster ryanodine receptor (expressed in Sf9 cells) (Drosophila melanogaster, UniProt Q24498); format: cell-based; settings: for Calcium Release (D. melanogaster): known ryanodine receptor agents, transiently or stably expressed in Sf9 cells, result in words
T1 construct: His tag + attB1 + Lox footprint (N-terminal vector extension; present only if the Cre-Lox vector was the one used) (N); expressed in transfected cells
Excerpt: as §1
Cell-attached coverslips were placed in a sealed chamber with physiological saline continuously perfused across the cells using a peristaltic pump. Test compounds solubilized in physiological saline were applied by switching the perfusate source.
as §3

[5] = biological target: cockroach ryanodine receptor (roach femoral muscle membranes) (Periplaneta americana, UniProt Z9HFG3YSF4); assay: Radioligand displacement ([3H]-GN analog Cpd 1) from roach femoral muscle membranes; settings: for IC50: read-out: Displacement IC50 (nM) P. americana, displacement of [3H]-Cpd 1, roach muscle membranes, 60 min at 32° C.; for Radioligand Displacement (P. americana): known ryanodine receptor agents, result in words
Method: Mid and hind legs from 6-9 week old cockroaches were excised and immediately placed in liquid nitrogen. Excised legs could be stored at −80° C. for several months, if necessary, prior to further fractionation. Typically, membrane preparations started with approximately 55 g (wet weight) of excised legs. All subsequent steps were carried out at 4° C.
The legs were homogenized on ice using a Polytron (Brinkmann Instruments, Westbury, N.Y.) for 2 min at Setting #3. In order to remove all fragments of cuticle, the homogenate was first passed through two layers of cheesecloth and then through one layer of glass wool overlaid on two layers of cheesecloth. On occasion, the cheesecloth clogged with particulates prior to passing all material through. In such cases, fresh cheesecloth (and glass wool) was used for the remainder of the suspension. […] The supernatant was collected and centrifuged for 30 min at 30,000×gmax. The resulting pellet was resuspended in buffer A (1.5 M KCl, 0.3 M sucrose, 0.5 mM CaCl2, 20 mM Tris-HCl, pH 8.0). The membrane suspension was homogenized by hand (about 25 strokes) using a glass-teflon homogenizer. […] Subsequently, the membrane suspension was adjusted to 4 μg protein/μg by addition of buffer A and then stored in 1 ml aliquots at −80° C.
The assay was begun by addition of 25 μl of roach muscle membranes at 2 μg/μl (prepared by thawing and addition of an equal volume of buffer B), and incubation was carried out for 60 min at 32° C. Assays were carried out in triplicate.
The compound was allowed to pre-incubate with the membranes for 10 min at 32° C. […] Assays were carried out in triplicate.
Following incubation, assays were quenched with ice-cold buffer B and immediately filtered on pre-wefted Unifilter 96 GF/B filter microplates using a Unifilter 96 Harvester (PerkinElmer™, Boston, Mass.). Each assay well was then washed 10 times with buffer B, and collected on the same filter microplate. The filter microplates were then placed in a vacuum oven at 32° C. for 3 h, following which 50 μl of Microscint 0 (PerkinElmer™, Boston, Mass.) was added to each well. Plates were then heat sealed and counted using a Topcount microplate scintillation counter (PerkinElmer™, Boston, Mass.).

Structure (SMILES)	Calcium Release Threshold (nM) P. americana [1]	IC50 [5]	also measured
Oc1c(Br)cc2[nH]c3cnccc3c2c1Br [Bromoeudistomin D, reference compound]	–	–	Calcium Release (P. americana) [1]: Agonist
Cn1c(=O)c2c(ncn2C)n(C)c1=O [Caffeine]	–	–	caffeine dose response, wild-type Sf9 cells (FIG. 6) ([2]; Sf9-WT, FlexStation, Fura-2): insensitive; response of lipid only (-DNA) or non-transfected cells ([2]; caffeine 10 mM): do not exhibit significant response; calcium responses in control cells without DNA (FIG. 4) ([2]; caffeine 10 mM, Compound 5 3 μM): No significant calcium responses; calcium responses in control cells without DNA (FIG. 3) ([2]; caffeine 10 mM): No significant calcium responses; cytosolic [Ca2+], Sf9 transiently expressing H. virescens ryanodine receptor (FIG. 4) ([3]; 72 hr post-transfection, Cpd 5 3 μM): increase in cytosolic [Ca^2+]; calcium responses, Sf9 stably expressing H. virescens ryanodine receptor (FIG. 5) [3]: calcium responses elicited; Calcium Release (P. americana) [1]: Agonist
[3H]c1cc(C)c(NC(=O)c2cc(C(F)(F)F)nn2-c2ccccc2F)c(C(=O)NC(C)C)c1 [Cpd 1, 1-(2-Fluorophenyl)-N-[2-methyl-4-tritio-6-[[(1-methylethyl)amino]carbonyl]phenyl]-3-(trifluoromethyl)-1H-pyrazole-5-carboxamide]	<1000 nM	< 300 nM	Calcium Release Threshold (nM) D. melanogaster [4]: <300 nM
Cc1cccc(C(=O)NC(C)C)c1NC(=O)c1cc(C(F)(F)F)nn1-c1ccccc1Cl [Cpd 2]	<300 nM	< 300 nM	Calcium Release Threshold (nM) D. melanogaster [4]: <300 nM
Cc1cc(Br)cc(C(=O)NCC(C)C)c1NC(=O)c1cc(C(F)(F)F)nn1-c1ccccc1Cl [Cpd 3]	–	< 300 nM	–
CNC(=O)c1cccc(C)c1NC(=O)c1cc(C(F)(F)F)nn1-c1ncccc1Cl [Cpd 6]	<300 nM	< 300 nM	–
Cc1cccc(C(=O)NC(C)C)c1NC(=O)c1cc(Br)nn1-c1ncccc1Cl [Cpd 7]	<300 nM	< 300 nM	–
Cc1cccc(C(=O)NC(C)C)c1NC(=O)c1cc(Cl)nn1-c1ncccc1Cl [Cpd 8]	<300 nM	< 300 nM	–
Cc1cc(Br)cc(C(=O)NC(C)C)c1NC(=O)c1cc(C(F)(F)F)nn1-c1ncccc1Cl [Cpd 9]	<300 nM	< 300 nM	–
Cc1cc(Cl)cc(C(=O)NC(C)C)c1NC(=O)c1cc(C(F)(F)F)nn1-c1ncccc1Cl [Cpd 10]	<300 nM	< 300 nM	–
CNC(=O)c1cc(Cl)cc(C)c1NC(=O)c1cc(C(F)(F)F)nn1-c1ncccc1Cl [Cpd 11]	<300 nM	< 300 nM	Calcium Release Threshold (nM) D. melanogaster [4]: <300 nM
Cc1cc(Br)cc(C(=O)NC(C)C)c1NC(=O)c1cc(Br)nn1-c1ncccc1Cl [Cpd 12]	<300 nM	< 300 nM	–
Cc1cc(Cl)cc(C(=O)NC(C)C)c1NC(=O)c1cc(Br)nn1-c1ncccc1Cl [Cpd 13]	–	< 300 nM	–
CNC(=O)c1cc(Cl)cc(C)c1NC(=O)c1cc(Br)nn1-c1ncccc1Cl [Cpd 14]	<300 nM	< 300 nM	Calcium Release Threshold (nM) D. melanogaster [4]: <300 nM; calcium responses, Sf9 stably expressing H. virescens ryanodine receptor (FIG. 5) [3]: calcium responses elicited
CNC(=O)c1cc(Br)cc(C)c1NC(=O)c1cc(C(F)(F)F)nn1-c1ncccc1Cl [Cpd 15]	<300 nM	< 300 nM	–
Cc1cc(Cl)cc(C(=O)NC(C)C)c1NC(=O)c1cc(Cl)nn1-c1ncccc1Cl [Cpd 16]	<300 nM	< 300 nM	Calcium Release Threshold (nM) D. melanogaster [4]: <300 nM; calcium responses, Sf9 transiently expressing D. melanogaster ryanodine receptor (FIG. 3) ([4]; 96 hr post-transfection, caffeine 10 mM, Compound 16 10 and 100 nM): calcium responses elicited; calcium responses in control cells without DNA (FIG. 3) ([2]; caffeine 10 mM): No significant calcium responses
CNC(=O)c1cc(Cl)cc(C)c1NC(=O)c1cc(Cl)nn1-c1ncccc1Cl [Cpd 17]	<300 nM	< 300 nM	–
CCNC(=O)c1cc(Br)cc(Br)c1NC(=O)c1cc(C(F)(F)F)nn1-c1ncccc1Cl [Cpd 18]	–	< 300 nM	–
COc1cccc2c1C(=O)c1c(O)c3c(c(O)c1C2=O)C[C@@](O)(C(=O)CO)C[C@@H]3O[C@H]1C[C@H](N)[C@H](O)[C@H](C)O1.Cl [Doxorubicin, reference compound]	–	–	Calcium Release (P. americana) [1]: Inactive
N.N.N.N.N.N.N.N.N.N.N.N.N.N.[Cl-].[Cl-].[Cl-].[Cl-].[Cl-].[Cl-].[O-2].[O-2].[Ru+3].[Ru+3].[Ru+4] [Ruthenium Red, reference compound]	–	–	Calcium Release (D. melanogaster) [4]: Antagonist; Calcium Release (P. americana) [1]: Inactive; Radioligand Displacement (P. americana) [5]: Displacer
CC(C)[C@@]1(O)[C@@H](OC(=O)c2ccc[nH]2)[C@@]2(O)[C@@]3(C)C[C@]4(O)O[C@@]5([C@H](O)[C@@H](C)CC[C@]35O)[C@@]2(O)[C@@]14C [Ryanodine]	–	–	Calcium Release (D. melanogaster) [4]: Antagonist; Calcium Release (P. americana) [1]: Antagonist; Radioligand Displacement (P. americana) [5]: Inactive
